Source: patent US5330992A, “1-cyclopropyl-4-pyridyl-quinolinones” (priority 1992, dated 1994)

Tests used:
Design in all cases: species or system mouse
B16 melanoma (B16) = assay: In vivo antitumor assay, B16(ip); conditions: drug route ip; for ILS %: qd 1,5,9, increased life span; for LOG KILL: qd 1,5,9, log10 cell kill
From the text: (§1) Mice: Inbred: C3H/He and NCR-nu; and Hybrids: B6D2Fl (C57BL/6 females X DBA/2 males, CD2Fl (Balb/c females X DBS/2 males) and B6x C3fl (C57BL/6 x C3H) were bred at Wayne State University from strained obtained from the Frederick Cancer Research Facility, Frederick, Md. or purchased from commercial suppliers.
(§2) Tumors: Murine Tumor: P388 and an adriamycin-resistant (ADR) subline P388/ADR leukemia and the following transplantable solid tumors of mice were used for in Vivo testing: B16 melanoma (B16), pancreatic ductal adenocarcinoma No. 03 (Panc 03), colon adenocarcinoma No. 38 (colo 38), mammary ductal adenocarcinoma No. 16/C (Mam16) and an adriamycin-resistantsubline Mam16C/ADR. Human tumor: A single human tumor, mammary carcinoma MX-1 (MX1) was used for in vivo testing. All tumors are in the Developmental Therapeutics Program frozen tumor respository, maintained by the Biological Testing Branch, Frederick Md. Each has a detailed description, code identification number, and list of references at the National Tumor Repository. Murine tumors were maintained in the mouse strain of origin and were transplanted in the appropriate F1 hydrid (or the strain of origin) for therapy trials. Human mammary carcinoma MX-1 MX1) was maintained as a subcutaneous implant in either athymic Swiss (Cr: NIH(S)-nu) or athymic random bred (NCR-nu) mice and transplanted in NCR-nu for therapy trials.
(§3) For P388 and P388/ADR leukemia studies the tumor cells were implanted either IP or intravenously (IV) on day zero and treatment was started on day one. For B16 melanoma (B16) studies, the tumor cells were implanted IP on day zero and treatment was started on day one. Tirered controls were also included to facilitate the calculation of tumor cell kill. For mammary carcinoma MX-1 studies, tumors were implanted with 1) subcutaneously (sc) (14-mg fragment of s.c. donor tumor) in the axillary region or 2) under the subrenal capsule (src) (10×10×10 ocular micrometer unit fragment of s.c. donor tumor). Treatment started on the day after subrenal capsule tumor implant or when the subcutaneous tumor implant had reached 100-700 mg.
(§4) Quantitative end points used assess antitumor activity included % Increased Life Span (% ILS), Tumor Cell Kill (Log10 kill), and Tumor Growth Inhibition (T/C). Long Term Survivors (45 or 60 day) were excluded from calculations of % ILS and Tumor Cell Kill.
(§5) Endpoints were calculated as follows: % ILS [formula] where Dt is the median day of death for treated and Dc is the median day of death for control groups. A % ILS ≥20 or ≥25 for P388 and B16 intraperitoneal models, respectively, is indicative of a significant degree of antitumor activity. A % ILS ≥75 or ≥50 for P388 and B16 intraperitoneal models, respectively, is indicative of a high degree of antitumor activity and is the level used by National Cancer Institute to justify further development if other requirements are met (termed DN-2 level activity). Minimum quantitative activity limits for additional P388 models (e.g. P388/ADR and P388, IJV) have not been defined. However, the activity limits specified for the intraperitoneal models may be applied as in the majority of instances these models are found to be signficantly […] challenging.
(§6) The log10 cell kill was calculated from the following formula: [formula] where T-C is the tumor difference in the median day of death between the treated (T) and the control (C) groups and Td is the tumor doubling time (in days), the latter estimated from the best fit straight line from a log-linear growth plot of the control-group tumors in exponential growth. The conversion of the T-C values to log10 cell kill is possible because the Td for tumors regrowing post-treatment approximated the Td values of the tumors in untreated control mice.

[1] = In vivo antitumor assay, B16(ip); conditions: mouse, in vivo, drug route ip, qd 1,5,9
From the text: as §1, §2, §3, §4, §5, §6

[2] = tested on: pancreatic ductal adenocarcinoma No. 03 (Panc 03); assay: In vivo antitumor assay, Panc03(sc)
From the text: as §1, §2
(§7) Chemotherapy: For pancreatic ductal adenocarcinoma No. 3, colon adenocarcinoma No. 38 (colo38), lung carcinoma No. 12 (LC12) and both adriamycin-sensitive (RP) and -resistant ADR) mammary ductal adenocarcinoma No. 16 (Mam16) tumors, the following methods were used to help ensure a more uniform tumor burden per mouse (thus reducing the requirement for greater numbers of mice per group), bilateral tumor implants were used. The animals necessary to begin an experiment were pooled, implanted bilaterally s.c. on day zero with 30-60-mg tumor fragments using a 12-gauge trocar, and again pooled before randomization to the various treatment and control groups. Chemotherapy was started within three days after tumor implantation while the number of cells per mouse was relatively small (1×10^7 […]).
as §4, §6
(§8) Tumors were measured with a caliper once or twice weekly (as needed) until either tumors exceeded 1600 mg or cure was assured. Tumor weights were estimated from two-dimensional measurements: Tumor Weight (mg)=(a×b^2) / 2, where a and b are the tumor length and width (nun) respectively. Measurements were carried out simultaneously in both treatment and control groups. When the control group tumors reached approximately 750-1500 mg in size (median of group), the median tumor weight of each group was determined (including zeros). The T/C value in percent is an indiation of antitumor effectiveness. The % T/C was calculated from the following formula for solid murine tumor models: [formula] where T and C are median tumor weights of the treatment and control groups, respectively. A T/C equal to or less than 42% is considered significant antitumor activity. […]

[3] = In vivo antitumor assay, Panc03(sc); conditions: mouse, in vivo
From the text: as §1, §2, §7, §4, §6, §8

[4] = drug route iv, Ex 26 qd 4-11, Ex 30 qd 3-11, Ex 33 qd 3-4,7,10
[5] = drug route iv, Ex 26 qd 4-11, Ex 30 qd 3-11, Ex 33 qd 3-4,7,10, read-out: MTD

| SMILES | ILS % (B16 melanoma (B16)) [%] | LOG KILL (B16 melanoma (B16)) | MTD [1] [mg/kg] | T/C % [2, 4] [%] | LOG KILL ([2]; drug route iv, qd 4-11, log10 cell kill) | T/C % ([2]; drug route sc, Ex 3 qd 3-12, Ex 26 qd 3,5-7 bid 4) [%] | MTD [3, 5] [mg/kg] | MTD ([3]; drug route sc, Ex 26 qd 3,5-7 bid 4, read-out: MTD) [mg/kg] |
| --- | --- | --- | --- | --- | --- | --- | --- | --- |
| Cc1cc(-c2c(F)cc3c(=O)c(Cc4c(O)cccc4O)cn(C4CC4)c3c2F)cc(C)n1 [Example 26, 1-Cyclopropyl-6,8-difluoro-7-[2,6-dimethyl-4-pyridinyl]-3-[2,6-dihydroxyphenylmethyl]-1,4-dihydroquinoline-4-one] | 94 | 2.2 | 8.1 | 0 | 1.7 | 19 | 12 | 840 |
| Cc1cc(-c2c(F)cc3c(=O)c(Cc4ccccc4O)cn(C4CC4)c3c2F)cc(C)n1 [Example 30] | 88 | 2.0 | 304 | 5 |  |  | 235 |  |
| Cc1cc(-c2c(F)cc3c(=O)c(Cc4ccc(O)cc4O)cn(C4CC4)c3c2F)cc(C)n1 [Example 33] | 94 | 2.2 | 19 | 73 |  |  | 19 |  |
